The text below walks through data of ChEMBL document CHEMBL1201862, “PubChem BioAssay data set” (2004).

Structures are written as SMILES.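 Grown in 96-well plates, cells were treated for 48 hours with each compound at five concentrations. Insufficient inhibition: endpoint recorded as highest concentration tested. Here, GI50 denotes the concentration required for 50% inhibition of growth.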 The source made the active and inactive calls. No stated cut-off is given here; in the data, active = GI50 up to about 1.1 µM and inactive = higher. A value given as a limit tells only on which side of the number the result lay.

Some test systems named below: HT-29; MDA-MB-435; EKVX; DU-145; HCT-116; NCI-H460; NCI-H226; NCI-H522; SNB-75; NCI-H23; OVCAR-3; RXF 393; SK-MEL-5; A549; OVCAR-8; A498; HOP-92; HCC 2998; RPMI-8226; SF-539.
Holding throughout (test): DTP human tumour cell line panel, 48 h

Turning to `C1=C2C3=[N+](CCCC3)CC2Cc2ccsc21` (centres undefined), the GI50 with HT-29 is > 100 µM (inactive); in the assay with MDA-MB-435, > 100 µM (inactive); with EKVX it was 52.6 µM (inactive); with DU-145, > 100 µM (inactive); with HCT-116 it was > 100 µM (inactive); with NCI-H460, 38 µM (inactive). The GI50 is > 100 µM (inactive) with NCI-H226; 62.8 µM (inactive) in the assay on NCI-H522; 93.8 µM (inactive) with SNB-75; > 100 µM (inactive) in the assay on NCI-H23; 84.1 µM (inactive) in the assay on OVCAR-3; 65 µM (inactive) in the assay with RXF 393. In addition, the GI50 in the assay on SK-MEL-5 was 66.5 µM (inactive); in the assay with A549, 25 µM (inactive); in the assay with OVCAR-8, 82.6 µM (inactive); in the assay on A498 it was 52.8 µM (inactive); in the assay with HOP-92, 69.5 µM (inactive).

With `CN1C(=O)c2ccccc2NC(=O)C12O[C@@H]2c1cccc(O)c1` (some centres undefined), the GI50 in the assay on HT-29, in the assay on MDA-MB-435, in the assay with EKVX, with DU-145, in the assay with HCC 2998 and in the assay with HCT-116 was > 100 µM (inactive) throughout. For the same compound, the GI50 with NCI-H460, with NCI-H522, in the assay with SNB-75, in the assay with NCI-H23, in the assay on OVCAR-3 and in the assay with SK-MEL-5 was > 100 µM (inactive) each time. For the same compound, the GI50 in the assay on A549, with OVCAR-8, with RPMI-8226, with A498, in the assay with SF-539 and in the assay on HOP-92 was > 100 µM (inactive) in each case.

For `N#Cc1nnn(C2CCCCC2)c1O`, the GI50 in the assay with HT-29, with MDA-MB-435, in the assay on EKVX, in the assay on DU-145, in the assay with HCC 2998 and in the assay with HCT-116 was > 100 µM (inactive) each time. Further, the GI50 in the assay on NCI-H460, with NCI-H226, in the assay on NCI-H522, in the assay on SNB-75, in the assay on NCI-H23 and in the assay on OVCAR-3 was > 100 µM (inactive) each time. For the same compound, the GI50 in the assay on RXF 393 is > 100 µM (inactive); in the assay with SK-MEL-5, > 100 µM (inactive); in the assay on A549, > 100 µM (inactive); in the assay on OVCAR-8, > 100 µM (inactive); with RPMI-8226, 10 µM (inactive); in the assay on A498 it was > 100 µM (inactive). Besides, in the assay with SF-539, the GI50 is > 100 µM (inactive).

On to `Cc1cc2ncn(CC(=O)O)c2cc1C`, for which the GI50 in the assay with HT-29, in the assay with MDA-MB-435, in the assay on EKVX, with DU-145, with HCT-116 and in the assay on NCI-H460 was > 100 µM (inactive) each time. Moreover, the GI50 with NCI-H226, with NCI-H522, in the assay on SNB-75, with NCI-H23, in the assay with OVCAR-3 and in the assay on RXF 393 was > 100 µM (inactive) throughout. The GI50 in the assay on SK-MEL-5, with A549, in the assay with OVCAR-8, in the assay with RPMI-8226, with A498 and in the assay on SF-539 was > 100 µM (inactive) in each case. The GI50 with HOP-92 was > 100 µM (inactive).

As to `O=C(O)c1cnc(-n2[nH]c3c(c2=O)CCCC3)[nH]c1=O`, the GI50 in the assay with HT-29, in the assay on MDA-MB-435, with EKVX, in the assay on DU-145, in the assay on HCT-116 and with NCI-H460 was > 100 µM (inactive) in each case. For the same compound, the GI50 in the assay with NCI-H226, with NCI-H522, with NCI-H23, with SK-MEL-5, in the assay with A549 and in the assay on OVCAR-8 was > 100 µM (inactive) in each case. Further, the GI50 is > 100 µM (inactive) with RPMI-8226, > 100 µM (inactive) in the assay on A498, > 100 µM (inactive) with SF-539 and 83.9 µM (inactive) in the assay with HOP-92.

As for `O=C1Nc2ccccc2/C1=N/Nc1ccccc1[N+](=O)[O-]`, the GI50 was > 100 µM (inactive) in the assay on HT-29; > 100 µM (inactive) with MDA-MB-435; 0.706 µM (active) with EKVX; 33.6 µM (inactive) in the assay on DU-145; 44.4 µM (inactive) in the assay with HCC 2998; 25.9 µM (inactive) with HCT-116. For the same compound, the GI50 was 19.9 µM (inactive) in the assay with NCI-H460; 1.67 µM (inactive) in the assay with NCI-H226; 21.8 µM (inactive) with NCI-H522; 16.5 µM (inactive) in the assay on SNB-75; 16.3 µM (inactive) in the assay with NCI-H23; 10.5 µM (inactive) with OVCAR-3. Also, the GI50 in the assay on RXF 393 is 35.6 µM (inactive); in the assay with SK-MEL-5, 40.9 µM (inactive); with A549, 34.4 µM (inactive); in the assay on OVCAR-8, 23.3 µM (inactive); in the assay with RPMI-8226 it was 80.7 µM (inactive); in the assay on A498, 32.8 µM (inactive). Also, in the assay on SF-539, the GI50 is 9.89 µM (inactive).

As to `CC[C@@H]1/C=C/C=C/C[C@H](C)[C@@H](O)[C@](C)(O)C(=O)[C@H](C)[C@@H](O)[C@H](C)C(=O)[C@H](C)[C@@H](O)[C@H](C)/C=C/C(=O)O[C@H]2[C@@H](C)[C@@H](CC1)O[C@]1(O[C@H](CC(C)O)[C@H](C)CC1=O)[C@@H]2C` (some centres undefined), the GI50 in the assay with HT-29 is 2.92 µM (inactive); with MDA-MB-435 it was 3.26 µM (inactive); in the assay with EKVX it was < 0.0025 µM (active); in the assay with DU-145, 3.3 µM (inactive); in the assay with HCC 2998, 3.53 µM (inactive); in the assay with HCT-116, 2.62 µM (inactive). For the same compound, the GI50 in the assay on NCI-H460 is 1.04 µM (active); in the assay with NCI-H522 it was < 0.0025 µM (active); in the assay with SNB-75, 0.871 µM (active); with NCI-H23, < 0.0025 µM (active); in the assay with OVCAR-3, 2.92 µM (inactive); in the assay on RXF 393, 3.6 µM (inactive). Further, the GI50 in the assay with SK-MEL-5 was < 0.0025 µM (active); in the assay with A549, < 0.0025 µM (active); in the assay with OVCAR-8, < 0.0025 µM (active); in the assay with RPMI-8226, < 0.0025 µM (active); in the assay on A498, 0.108 µM (active); in the assay with SF-539, 4.41 µM (inactive). In addition, the GI50 in the assay with HOP-92 was 4.23 µM (inactive).

For `C1C2CC3CC1CC(Nc1nc(NC45CC6CC(CC(C6)C4)C5)nc(NC45CC6CC(CC(C6)C4)C5)n1)(C2)C3`, the GI50 with HT-29 is > 100 µM (inactive); with MDA-MB-435, > 56.4 µM (inactive); with EKVX, > 43.5 µM (inactive); in the assay with DU-145, 42 µM (inactive); with HCC 2998, 72.1 µM (inactive); with HCT-116, > 51.9 µM (inactive). The GI50 in the assay with NCI-H460 is 66.4 µM (inactive); in the assay with NCI-H226 it was > 100 µM (inactive); in the assay on SNB-75, 16.9 µM (inactive); in the assay with NCI-H23, > 43.9 µM (inactive); with OVCAR-3, > 23.6 µM (inactive); in the assay on RXF 393 it was 39 µM (inactive). The GI50 in the assay with SK-MEL-5 was 14.3 µM (inactive); in the assay with A549, > 53 µM (inactive); in the assay with OVCAR-8, > 26 µM (inactive); with RPMI-8226, 24.5 µM (inactive); in the assay on A498, > 51.4 µM (inactive); in the assay with SF-539, > 100 µM (inactive). In addition, in the assay on HOP-92, the GI50 was > 100 µM (inactive).

Regarding `COC(=O)c1c(C(=O)OC)c2ccccn2c1-c1cc(C)cc2c1C(=O)C=CC2=O`, the GI50 with HT-29 is 11.2 µM (inactive); in the assay on MDA-MB-435, 11.4 µM (inactive); with EKVX, 14.8 µM (inactive); with DU-145, 14 µM (inactive); in the assay on HCC 2998, 13.9 µM (inactive); in the assay on HCT-116 it was 10.7 µM (inactive). In addition, the GI50 in the assay with NCI-H460 was > 10 µM (inactive); in the assay with NCI-H226 it was 13.8 µM (inactive); with NCI-H522 it was > 10 µM (inactive); with SNB-75 it was 16.4 µM (inactive); with NCI-H23, 8.09 µM (inactive); with OVCAR-3, 11 µM (inactive). The GI50 in the assay on RXF 393 is 14.1 µM (inactive); with SK-MEL-5, 12.4 µM (inactive); in the assay on A549 it was 16.3 µM (inactive); in the assay on OVCAR-8 it was 6.3 µM (inactive); in the assay on RPMI-8226, 4.11 µM (inactive); in the assay with A498 it was 12.8 µM (inactive). Moreover, the GI50 in the assay on SF-539 was 11 µM (inactive).

As for `O=C(O)CSc1cc(-c2ccccc2)nc2ccccc12`, the GI50 is 36.2 µM (inactive) in the assay on HT-29; 13.3 µM (inactive) with MDA-MB-435; > 100 µM (inactive) in the assay on EKVX; 34 µM (inactive) in the assay with DU-145; 5.41 µM (inactive) in the assay with HCT-116; 38.7 µM (inactive) in the assay with NCI-H460. Further, the GI50 is 22.6 µM (inactive) in the assay with NCI-H522; 44.7 µM (inactive) in the assay with NCI-H23; 21.7 µM (inactive) in the assay with OVCAR-3; 27.4 µM (inactive) with RXF 393; 30.4 µM (inactive) in the assay with SK-MEL-5; 55.5 µM (inactive) in the assay on A549. Moreover, the GI50 with OVCAR-8 is 63.2 µM (inactive); in the assay on A498, 28.5 µM (inactive); in the assay with HOP-92, 72.3 µM (inactive).

`COC(=O)C1c2cc3c(cc2C(OC2OC(C)C(OC)C(C)(OC)C2OC)CC1(C)O)C(=O)c1c(O)cc2c(c1C3=O)OC1OC2(C)C(O)C([N+](C)(C)[O-])C1O` (centres undefined): the GI50 in the assay on HT-29 is 0.173 µM (active); in the assay with MDA-MB-435, 0.158 µM (active); in the assay on EKVX, 0.658 µM (active); in the assay with DU-145, 0.275 µM (active); with HCC 2998, 0.146 µM (active); with HCT-116, 0.0197 µM (active). In addition, the GI50 in the assay on NCI-H460 is 0.0644 µM (active); with NCI-H522 it was 0.055 µM (active); in the assay on SNB-75, 0.179 µM (active); in the assay on NCI-H23, 0.105 µM (active); in the assay with OVCAR-3 it was 0.658 µM (active); in the assay on RXF 393, 0.179 µM (active). Besides, the concentration for 50% growth inhibition (GI50) with SK-MEL-5 is 0.0776 µM (active); in the assay on A549, 0.227 µM (active); with OVCAR-8 it was 0.0927 µM (active); in the assay on RPMI-8226, 0.122 µM (active); in the assay on A498 it was 0.184 µM (active); in the assay on SF-539 it was 0.0883 µM (active). Also, the GI50 with HOP-92 was 0.144 µM (active).
